According to patent US7407670B2, “Solid dispersions comprising two different polymer matrixes” (Janssen Pharmaceutica, N.V., priority 2002, dated 2008):

Assay: Solubility of itraconazole in polymer solutions at 298K
Assay type: physicochemical
Settings: eudragit E100 solution versus PVPVA64 solution
Source text: FIG. 10: Solubility of itraconazole in different concentration of polymer solutions at 298K in eudragit E100 (open bars) and PVPVA64 (closed bars).

solubility in polymer solution (comparison in words): much higher in eudragit E100 solution
Structure (SMILES): CCC(C)n1ncn(-c2ccc(N3CCN(c4ccc(OCC5COC(Cn6cncn6)(c6ccc(Cl)cc6Cl)O5)cc4)CC3)cc2)c1=O (stereo not shown) [itraconazole, Itraconazole]
